Data reported in patent publication US20230139056A1, “METHODS, COMPOSITIONS AND REAGENTS FOR PREPARING COMPOUNDS” (Regents of the University of Minnesota, priority 2021, published 2023).

Target: T1, SyrB2 halogenase (Pseudomonas syringae pv. syringae, UniProt Q9RBY6)
T1 construct: His-tag (inferred from the pET-28a(+) vector and Ni HisTrap purification); made in house; host or cells: E. coli BL21-Gold (DE3)
Assay: Fluorination assay of Thr by SyrB2 halogenase with ligator (LC-MS/MS)
Type: biochemical
Method: In an anaerobic glovebag (98% N2/2% H2, Coy Laboratories), all plasticware, solutions, and solids were allowed to equilibrate overnight before use. Stock solutions of RXN buffer (20 mM HEPES, pH=7.5), 20G (100 mM in RXN buffer, pH=7.5), NOG (150 mM in RXN buffer, pH=7.5), and Milli-Q water were degassed using a vacuum manifold on a Schlenk Line apparatus. At least three cycles of vacuum and subsequent equilibration with Argon gas were performed before transfer to the glovebag. Halide Salts (NaCl, NaF) and ferrous ammonium sulfate (FAS) were transferred to the glovebag the day before use.
Stock SyrB1-PPT-Thr and SyrB2 were thawed on ice-water and centrifuged to remove any possible precipitate. Stock proteins were diluted in RXN buffer and transferred to individual ReactiVials (Thermo) sealed with septa on a pre-cooled ReactiBlock (Thermo). Protein was deoxygenated by piercing the ReactiVials with needles and purging the headspace with a continuous flow of Argon gas for 1 hr while continuously stirring the protein solution on ice bath. Reactivials were sealed and transferred to the glovebag. While deoxygenating the protein, halide salts were dissolved in RXN buffer in the glovebag. To individual 1.7 mL tubes, RXN buffer, ligand (NOG or 2OG), and halide (NaCl or NaF) were added and cooled to 4° C. The ReactiVials containing the proteins were sealed and transferred to the glovebag. […]

T1 sequence (Q9RBY6 whole entry): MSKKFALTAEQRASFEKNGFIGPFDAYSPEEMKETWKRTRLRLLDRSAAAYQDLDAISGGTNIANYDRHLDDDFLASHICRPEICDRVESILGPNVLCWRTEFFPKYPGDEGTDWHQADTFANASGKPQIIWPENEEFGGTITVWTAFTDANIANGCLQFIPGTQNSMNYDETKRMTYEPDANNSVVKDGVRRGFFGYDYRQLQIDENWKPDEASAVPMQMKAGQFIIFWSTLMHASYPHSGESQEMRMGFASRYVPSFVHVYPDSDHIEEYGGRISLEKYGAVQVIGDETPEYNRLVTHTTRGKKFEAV

O=C(O)CNC(=O)C(=O)O [NOG, N-oxalylglycine]
side products (hydroxylated substrates) observed (in some of the reaction conditions with ligator): little to no side products | fluorination of Thr amino acid by SyrB2 halogenase (ligator 1 mM, NaF 10 mM, LC-MS/MS (FIG. 3)): enabling fluorination of Thr amino acid
